The assay deals with T1, CDK2/Cyclin E (Homo sapiens, UniProt P24941).
T1 construct: The open reading frames of CDK2 and Cyclin E were isolated; made in house; host or cells: Sf21 (Spodoptera frugiperda) insect cells, baculovirus co-infection; the GST-Rb substrate was made in E. coli BL21 (DE3) pLysS
As to the kind of experiment: in vitro kinase assay (Scintillation Proximity Assay), CDK2/Cyclin E, GST-Rb substrate. It is filed as biochemical. As to conditions: in-vitro SPA kinase assay, read-out: CDK2 inhibitory activity IC50. As for the experimental part:
The compounds were tested in an in vitro kinase assay in 96 well format using Scintillation Proximity Assay (SPA—obtained from Amersham) for measuring incorporation of [γ-33-P]-Adenosine Triphosphate into a test substrate (GST-Retinoblastoma protein; GST-Rb). In each well was placed the compound to be tested (diluted in DMSO and water to correct concentrations) and in control wells either roscovitine as an inhibitor control or DMSO as a positive control. […]
The plates were sealed with Topseal-S plate sealers, left for two hours then spun at 2500 rpm, 1124×g., for 5 minutes. The plates were read on a Topcount for 30 seconds per well. […]
E. coli paste was resuspended in 10 ml/g of NETN buffer (50 mM Tris pH 7.5, 120 mM NaCl, 1 mM EDTA, 0.5% v/v NP-40, 1 mM PMSF, 1 ug/ml leupeptin, 1 ug/ml aprotinin and 1 ug/ml pepstatin) and sonicated for 2×45 seconds per 100 ml homogenate. […] The final product was analysed by Sodium Dodeca Sulfate (SDS) PAGE (Polyacrylamide gel) using 8-16% Tris-Glycine gels (Novex, San Diego, USA).
The open reading frames of CDK2 and Cyclin E were isolated by reverse transcriptase-PCR using HeLa cell and activated T cell mRNA as a template and cloned into the insect expression vector pVL1393 (obtained from Invitrogen 1995 catalogue number: V1392-20). […]

By IC50 is commonly meant the concentration needed to halve the response being measured. Regarding `Cc1ncc(-c2ccnc(Nc3ccc(N4CCOCC4)nc3)n2)n1C(C)C` [Example 22, 4-(1-Isopropyl-2-methyl-1H-imidazol-5-yl)-N-(6-morpholin-4-ylpyridin-3-yl)pyrimidin-2-amine], the IC50 was 49 nM.

Values taken from patent US20090233928A1, “IMIDAZOLO-5-YL-2-ANILO-PYRIMIDINES AS AGENTS FOR THE INHIBITION OF CELL PROLIFERATION” (priority 2005, published 2009).
